The text below walks through data of patent US20260091026A1, “METHODS OF TREATING INFLAMMATORY DISEASES” (INTERLINE THERAPEUTICS, INC., priority 2023, published 2026).

Like-named read-outs stand apart in the source and are kept apart here. A value given as a limit tells only on which side of the number the result lay.

Test [1] addresses T1, GST-RIPK2 fusion protein (human RIPK2 amino acids 1-310) (Homo sapiens, UniProt O43353).
T1 construct: made in house; host or cells: baculovirus-infected Sf9 cells
As to the kind of experiment: RIPK2 binding competition assay (TR-FRET, Tracer 199). The settings on record: displacement of Tracer 199 (10 nM), 45 min at 22° C. The text has this:
The ability of selected compounds of Formulas (I) and (II) to inhibit the binding of an Alexa647-labelled ATP-competitive kinase inhibitor to a GST-RIPK2 fusion protein was quantified employing the TR-FRET-based RIPK2 binding competition assay as described in the following paragraphs.
Recombinant fusion protein of N-terminal Glutathione-S-Transferase (GST) and a fragment of human RIPK2 (amino acids 1-310 of accession number 043353), expressed in baculovirus infected Sf9 cells, purified via glutathione affinity chromatography, was used as GST-RIPK2 fusion protein. Tracer 199 from Life Technologies (catalogue no. PR9115B) was used as Alexa647-labelled ATP-competitive kinase inhibitor.
For the assay, 50 nL of a 100-fold concentrated solution of each test compound in DMSO was pipetted into either a black low volume 384-well microtiter plate or a black 1536-well microtiter plate (both Greiner Bio-One, Frickenhausen, Germany), 3 μL solution of Tracer 199 (16.7 nM=>final concentration in 5 μL assay volume is 10 nM) in aqueous assay buffer (25 mM Tris/HCl pH 7.5, 10 mM magnesium chloride (MgCl2), 5 mM β-glycerophosphate, 2.5 mM dithiothreitol (DTT), 0.5 mM ethylene glycol-bis(2-aminoethylether)-N,N,N′,N′-tetraacetic acid (EGTA), 0.5 mM sodium ortho-vanadate, 0.01% (w/v) bovine serum albumin (BSA), 0.005% (w/v) Pluronic F-127 (Sigma)) were added. Then the binding competition was started by the addition of 2 μL of a solution of the GST-RIPK2 fusion protein (2.5 nM=>final conc. in the 5 μL assay volume is 1 nM) and of Anti-GST-Tb (1.25 nM=>final conc. in the 5 μL assay volume is 0.5 nM), a Lumi4®—Tb cryptate-conjugated anti-GST antibody from PerkinElmer (catalogue no 61GSTTAH), in assay buffer.
The resulting mixture was incubated 45 min at 22° C. to allow the formation of a complex between the Tracer 199, the fusion protein and Anti-GST-Tb. Subsequently, the amount of this complex was evaluated by measurement of the resonance energy transfer from the Tb-cryptate to the Tracer 199. Therefore, the fluorescence emissions at 620 nm and 665 nm after excitation at 337 nm were measured in a TR-FRET reader, e.g. a Pherastar FS(BMG Labtechnologies, Offenburg, Germany) or a Viewlux (PerkinElmer). The ratio of the emissions at 665 nm and at 620 nm was taken as the measure of the amount of the complex. The data were normalized (assay reaction without inhibitor=0% activity, all other assay components but no GST-RIPK2 fusion protein=−100% activity).

Test [2] addresses T2, RIPK2 (KD)/XIAP (BIR2) (Homo sapiens, UniProt O43353).
T2 construct: made in house; host or cells: baculovirus-infected Sf9 cells
As to the kind of experiment: RIPK2-XIAP binding competition PPI assay (TR-FRET). Particulars: for Emax / PPI Amax: 50 nM of GSK583 = -100% activity; for Emax: read-out: PPI Amax; for IC50: GST-RIPK2 / His-XIAP (BIR2)-avi, 120 min at 23° C. In outline: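 After 2 h at 23 °C, complex formation was read as the 665/520 nm emission ratio (337 nm excitation), scaled between uninhibited reaction and 50 nM GSK583. The mix held 1 nM human RIPK2 kinase fragment-GST, 25 nM His-tagged XIAP BIR2 and Tb/XL665 antibodies in pH 7.5 Tris buffer containing vanadate and glycerophosphate.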

The test system of test [3] is THP1-Dual cells, NF-κB pathway (SEAP). Put plainly: THP-1 Dual cell SEAP assay (L18-MDP stimulated). It counts as cell-based. Particulars: 10 ng/mL L18-MDP, 20-24 h, SEAP readout, read-out: IFNγ THP1 IC50. The method, boiled down:
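IC50 values come from non-linear fits of % inhibition of SEAP, measured as QUANTI-Blue optical density (620-655 nm, 2 h) in media-blanked supernatants. These were taken from THP1-Dual cells treated with compound for 30 min before overnight exposure to 10 ng/mL L18-MDP final at 37 °C.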

T1 sequence (O43353 1-310): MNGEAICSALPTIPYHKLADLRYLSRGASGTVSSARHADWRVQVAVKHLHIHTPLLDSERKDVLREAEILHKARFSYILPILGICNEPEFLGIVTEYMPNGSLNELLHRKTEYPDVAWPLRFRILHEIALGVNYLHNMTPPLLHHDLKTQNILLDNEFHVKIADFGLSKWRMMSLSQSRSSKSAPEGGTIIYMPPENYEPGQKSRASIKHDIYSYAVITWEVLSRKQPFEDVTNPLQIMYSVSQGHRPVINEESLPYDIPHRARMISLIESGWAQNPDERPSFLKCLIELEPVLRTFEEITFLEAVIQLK
T2 sequence (O43353 1-310): as above

`COc1cc2ncc(-n3cc(NC(=O)N4CCCC4c4ccccc4)cn3)n2cc1S(=O)(=O)C(C)(C)C` (racemic) [Example 177, N-(1-(6-(tert-butylsulfonyl)-7-methoxyimidazo[1,2-a]pyridin-3-yl)-1H-pyrazol-4-yl)-2-phenylpyrrolidine-1-carboxamide]: the IC50 in test [1] was above 1000 nM; in test [2], above 1000 nM; in test [3] (Homo sapiens), above 2500 nM. For the same molecule, the Emax in test [2] is at least 80%.

For the molecule `COc1cc2ncc(-n3cc(N4CCC(c5ccccc5)C4=O)cn3)n2cc1S(=O)(=O)C(C)(C)C` (racemic) [Example 180, 1-(1-(6-(tert-butylsulfonyl)-7-methoxyimidazo[1,2-a]pyridin-3-yl)-1H-pyrazol-4-yl)-3-phenylpyrrolidin-2-one], the IC50 in test [1] was above 1000 nM; in test [2] it was above 1000 nM; in test [3] (Homo sapiens), above 2500 nM. The Emax in test [2] is at least 80%.

Regarding `COc1cc2ncc(-n3cc(NC(=O)N4CCCC4c4ccccc4)cn3)n2cc1S(=O)(=O)C(C)(C)C` (single isomer, unassigned) [Example 178, (R)- or (S)-N-(1-(6-(tert-butylsulfonyl)-7-methoxyimidazo[1,2-a]pyridin-3-yl)-1H-pyrazol-4-yl)-2-phenylpyrrolidine-1-carboxamide], the IC50 in test [1] is above 1000 nM; in test [2], above 1000 nM; in test [3] (Homo sapiens) it was above 2500 nM. Also, the “PPI Amax” value in test [2] is “C (Amax of 55%>C>30)”.

In the case of `COc1cc2ncc(-n3cc(NC(=O)N4CCCC4c4ccccc4)cn3)n2cc1S(=O)(=O)C(C)(C)C` (single isomer, unassigned) [Example 179, (S)- or (R)-N-(1-(6-(tert-butylsulfonyl)-7-methoxyimidazo[1,2-a]pyridin-3-yl)-1H-pyrazol-4-yl)-2-phenylpyrrolidine-1-carboxamide], the results for the IC50 in test [1], in test [2] and in test [3] were 500 to 1000 nM, above 1000 nM and above 2500 nM, respectively. Besides, the “PPI Amax” value in test [2] is “A (Amax of ≥80%)”.

In the case of `COc1cc2ncc(-n3cc(N4CCC(c5ccccc5)C4=O)cn3)n2cc1S(=O)(=O)C(C)(C)C` (single isomer, unassigned) [Example 182, (R)- or (S)-1-(1-(6-(tert-butylsulfonyl)-7-methoxyimidazo[1,2-a]pyridin-3-yl)-1H-pyrazol-4-yl)-3-phenylpyrrolidin-2-one], the IC50 in test [1] is above 1000 nM; in test [2], above 1000 nM; in test [3] (Homo sapiens), above 2500 nM. In test [2], the “PPI Amax” value is “C (Amax of 55%>C>30)”.

Turning to `COc1cc2ncc(-n3cc(N4CCC(c5ccccc5)C4=O)cn3)n2cc1S(=O)(=O)C(C)(C)C` (single isomer, unassigned) [Example 183, (S)- or (R)-1-(1-(6-(tert-butylsulfonyl)-7-methoxy-imidazo[1,2-a]pyridin-3-yl)-1H-pyrazol-4-yl)-3-phenylpyrrolidin-2-one], the IC50 in test [1] is above 1000 nM; in test [2], above 1000 nM; in test [3], above 2500 nM. In addition, the “PPI Amax” value in test [2] is listed as “A (Amax of ≥80%)”.

With `COc1cc2ncc(-n3cc(C(=O)NCc4ccccc4)cn3)n2cc1S(=O)(=O)C(C)(C)C` [Example 1, N-benzyl-1-(6-(tert-butylsulfonyl)-7-methoxyimidazo[1,2-a]pyridin-3-yl)-1H-pyrazole-4-carboxamide], the IC50 in test [1] is 200 to 500 nM; in test [2], 100 to 1000 nM; in test [3] (Homo sapiens), above 2500 nM. Besides, in test [2], the Emax is at least 80%.

For `COc1cc2ncc(-n3cc(C(=O)NCc4ccccc4Cl)cn3)n2cc1S(=O)(=O)C(C)(C)C` [Example 2, 1-(6-(tert-butylsulfonyl)-7-methoxyimidazo [1,2-a]pyridin-3-yl)-N-(2-chlorobenzyl)-1H-pyrazole-4-carboxamide], the IC50 in test [1] is 200 to 500 nM; in test [2], 100 to 1000 nM; in test [3] (Homo sapiens), above 2500 nM. The Emax in test [2] was at least 80%.

Regarding `COc1cc2ncc(-n3cc(C(=O)NCc4c(F)cc(F)cc4F)cn3)n2cc1S(=O)(=O)C(C)(C)C` [Example 3, 1-(6-(tert-butylsulfonyl)-7-methoxyimidazo [1,2-a]pyridin-3-yl)-N-(2,4,6-trifluorobenzyl)-1H-pyrazole-4-carboxamide], the IC50 was above 1000 nM in test [1], above 1000 nM in test [2] and above 2500 nM in test [3] (Homo sapiens). For the same molecule, the Emax in test [2] was in the range of 30 to 55%.

On to `COc1cc2ncc(-c3cc(C(=O)NCc4ccccc4Cl)n(C)n3)n2cc1S(=O)(=O)C(C)(C)C` [Example 4, 3-(6-(tert-butylsulfonyl)-7-methoxyimidazo[1,2-a]pyridin-3-yl)-N-(2-chlorobenzyl)-1-methyl-1H-pyrazole-5-carboxamide], for which the IC50 was below 200 nM in test [1], 10 to 100 nM in test [2] and 500 to 2500 nM in test [3] (Homo sapiens). Besides, the Emax in test [2] is at least 80%.

Turning to `COc1cc2ncc(-c3cc(C(=O)N(C)C)n(C)n3)n2cc1S(=O)(=O)C(C)(C)C` [Example 5, 3-(6-(tert-butylsulfonyl)-7-methoxyimidazo[1,2-a]pyridin-3-yl)-N,N,1-trimethyl-1H-pyrazole-5-carboxamide], the IC50 in test [1] is below 200 nM; in test [2], above 1000 nM; in test [3] (Homo sapiens), above 2500 nM. Besides, the Emax in test [2] was at most 30%.

As for `COc1cc2ncc(-c3cc(C(=O)NC4CCCCC4)n(C)n3)n2cc1S(=O)(=O)C(C)(C)C` [Example 6, 3-(6-(tert-butylsulfonyl)-7-methoxyimidazo[1,2-a]pyridin-3-yl)-N-cyclohexyl-1-methyl-1H-pyrazole-5-carboxamide], the results for the IC50 in test [1], in test [2] and in test [3] (Homo sapiens) were above 1000 nM, above 1000 nM and above 2500 nM, respectively. In test [2], the Emax is at least 80%.

For `COc1cc2ncc(-n3cc(NC(=O)Cc4ccccc4Cl)cn3)n2cc1S(=O)(=O)C(C)(C)C` [Example 152, N-(1-(6-(tert-butylsulfonyl)-7-methoxyimidazo[1,2-a]pyridin-3-yl)-1H-pyrazol-4-yl)-2-(2-chlorophenyl)acetamide], the IC50 was below 200 nM in test [1], 100 to 1000 nM in test [2] and above 2500 nM in test [3] (Homo sapiens). For the same molecule, in test [2], the Emax was at least 80%.

As to `COc1cc2ncc(-n3cc(NC(=O)OC(C)(C)C)cn3)n2cc1SC(C)(C)C` [Example 153, tert-butyl (1-(6-(tert-butylthio)-7-methoxyimidazo[1,2-a]pyridin-3-yl)-1H-pyrazol-4-yl)carbamate], the IC50 was 200 to 500 nM in test [1], above 1000 nM in test [2] and above 2500 nM in test [3] (Homo sapiens). In test [2], the Emax was at least 80%.

On to `COc1cc2ncc(-n3cc(NC(=O)OC(C)(C)C)cn3)n2cc1S(=O)(=O)C(C)(C)C` [Example 154, tert-butyl (1-(6-(tert-butylsulfonyl)-7-methoxyimidazo[1,2-a]pyridin-3-yl)-1H-pyrazol-4-yl)carbamate], for which the IC50 in test [1] was 500 to 1000 nM; in test [2] it was above 1000 nM; in test [3] (Homo sapiens) it was above 2500 nM. In addition, in test [2], the Emax was at least 80%.

As to `COc1cc2ncc(-n3cc(NC(C)=O)cn3)n2cc1S(=O)(=O)C(C)(C)C` [Example 155, N-(1-(6-(tert-butylsulfonyl)-7-methoxyimidazo[1,2-a]pyridin-3-yl)-1H-pyrazol-4-yl)acetamide], the IC50 in test [1] was above 1000 nM; in test [2], above 1000 nM; in test [3] (Homo sapiens), above 2500 nM. Moreover, the Emax in test [2] was at most 30%.
